This is an account of results in PubChem BioAssay AID1648 (Sanford-Burnham Center for Chemical Genomics, 2009).

Active and inactive are the calls of the source. The rule behind the calls is not given here. Bounds are passed on as bounds.

As a reminder, the Kd is a measure of binding affinity in units of concentration.

Sequence of Serine/threonine-protein kinase mTOR (Homo sapiens) (P42345 2015-2114): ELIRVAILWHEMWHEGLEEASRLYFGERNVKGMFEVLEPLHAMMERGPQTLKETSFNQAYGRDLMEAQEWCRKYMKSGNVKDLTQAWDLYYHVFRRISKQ

The assay concerns the target Serine/threonine-protein kinase mTOR (Homo sapiens) (UniProt P42345). The assay is described as follows: binders of mTOR FRB domain, biophysical, NMR (AID 1648). The following applies: NMR binding to FRB domain, chemical shift.
As for `CCOc1ccc(C(=O)c2ccc(O)c(O)c2O)cc1`, the Kd was > 4 mM (inactive).
Regarding `CNC(=O)c1c(O)c2ccccc2[nH]c1=O`, the Kd was > 4 mM (inactive).
Take `CC1(C)N([O-])c2cc([N+](=O)[O-])ccc2[N+]1=O`: the Kd is > 4 mM (inactive).
As to `Nc1nc(-c2ccc(O)cc2)cs1`, the Kd is > 4 mM (inactive).
The figure for `COC(=O)c1c(OC)cc2c(c1C)Oc1c(Cl)c(OC(C)=O)c(Cl)c(C)c1C(=O)O2` is > 4 mM (inactive); for `C/C(=C\CO)CC[C@H](C)CCC[C@H](C)CCCC(C)C` it is > 4 mM (inactive); for `O=C(O)c1ccccc1C(=O)NCC1CCCO1` (stereo unspecified) it is > 4 mM (inactive).
To `O=C(O)CCn1c(=O)oc2ccccc21` belongs > 4 mM (inactive); to `O=C(Cc1cccs1)Nc1nncs1`, > 4 mM (inactive).
On to `CC(=O)Nc1ccc(NC(=O)c2ccncc2)cc1`, for which the Kd was > 4 mM (inactive).
For the molecule `NC(=O)C1CCN(C(=O)CN2CCc3ccccc32)CC1`, the Kd was > 4 mM (inactive).
The figure for `O=C(O)CCc1c[nH]c2ccccc12` is > 4 mM (inactive); for `Cc1ccc(CCNc2ccccc2)c[n+]1[O-]` it is > 4 mM (inactive).
The figure for `COC(=O)C[C@@H]1C2(C)C(=O)[C@@H](CC3=C4CC(=O)O[C@@H](c5ccoc5)[C@]4(C)CCC32)[C@H](OC(C)=O)C1(C)C` (stereo partly specified) is > 4 mM (inactive); for `CC(=O)c1c(O)c(C)c(O)c2c1OC1=CC(=O)C(C(C)=O)C(=O)C12C` (stereo unspecified) it is > 4 mM (inactive).
For `Cc1noc(C)c1C(=O)Nc1ccc2c(c1)CCC2`, the Kd is > 4 mM (inactive).
As for `O=c1[nH]cc(S(=O)(=O)N2CCc3ccccc32)c(=O)[nH]1`, the Kd is > 4 mM (inactive).
Regarding `CCn1nnnc1Oc1ccc(Cl)cc1`, the Kd was > 4 mM (inactive).
To `COc1cc(-c2coc3cc(OCc4ccccc4)c(OC)c(O)c3c2=O)cc(O)c1OC` belongs > 4 mM (inactive); to `CC(C)NS(=O)(=O)c1ccc(N)cc1`, > 4 mM (inactive); to `c1cncc(Nc2nc(-c3cccnc3)cs2)c1`, > 4 mM (inactive).
Regarding `CSc1nnnn1-c1cccc(O)c1`, the Kd was > 4 mM (inactive).
As to `CCOC(=O)N1CCN(c2ncnc3c2cnn3C)CC1`, the Kd was > 4 mM (inactive).
With `O=C(O)CSc1nnc(-c2cccs2)o1`, the Kd was > 4 mM (inactive).
As for `c1coc(CNc2ncnc3nc[nH]c23)c1`, the Kd is > 4 mM (inactive).
With `CN=C(C)c1c(O)n(C)c(=S)n(C)c1=O`, the Kd was > 4 mM (inactive).
On to `Cn1c(O)c(/C=C2\C=CC=N2)c(=O)[nH]c1=O`, for which the Kd was > 4 mM (inactive).
Turning to `O=c1c(O)cc([C@H]2Oc3cc(O)cc(O)c3C[C@H]2O)cc2c([C@H]3Oc4cc(O)cc(O)c4C[C@H]3O)cc(O)c(O)c12`, the Kd is > 4 mM (inactive).
Consider `O=c1c(O)c(-c2ccccc2)oc2cc(O)ccc12`, for which the Kd is > 4 mM (inactive).
Turning to `c1ccc(CN2CCC3(CC2)Nc2ccccc2CO3)cc1`, the Kd was > 4 mM (inactive).
On to `NCc1cc2ccccc2s1`, for which the Kd is > 4 mM (inactive).
Consider `Oc1cc(O)c2c(c1)O[C@H](c1cc(O)c(O)c(O)c1)[C@H](O)C2`, for which the Kd was > 4 mM (inactive).
As for `COc1ccc(O)c(-c2cn[nH]c2-c2cccs2)c1`, the Kd is > 4 mM (inactive).
Consider `CC(C)CNc1cc(=O)n(C)c(=O)n1C`, for which the Kd was > 4 mM (inactive).
Turning to `CCSc1nnc2[nH]c(=O)cc(C)n12`, the Kd was > 4 mM (inactive).
Take `COC(=O)c1ccc(/C=C2/NC(=S)NC2=O)cc1`: the Kd was > 4 mM (inactive).
To `CC(C)=CC(=O)Nc1ccccc1C(N)=O` belongs > 4 mM (inactive); to `CC1=NN2C(=N)/C(=C\c3cccs3)C(=O)N=C2S1`, > 4 mM (inactive).
For `NC1=NC(=O)C(Cc2cccc([N+](=O)[O-])c2)S1` (stereo unspecified), the Kd is > 4 mM (inactive).
To `c1coc(-c2nc(-c3ccncc3)no2)c1` belongs > 4 mM (inactive).
With `Nc1ncnc2c1ncn2[C@@H]1O[C@H](CO)[C@@H](O)[C@H]1O`, the Kd was > 4 mM (inactive).
With `C/C(=N\NC(N)=S)C(=O)O`, the Kd was > 4 mM (inactive).
Turning to `Cn1[nH]c(C(F)(F)F)cc1=O`, the Kd was > 4 mM (inactive).
The figure for `COc1ccc2c3c1O[C@H]1C[C@@H](O)C=C[C@@]31CCN(C)C2` is > 4 mM (inactive).
The figure for `Cc1cc(C)nc(/N=C(\N)N2CCc3ccccc32)n1` is > 4 mM (inactive); for `Nc1cc(=O)[nH]c(SCC(=O)NC2CCCCC2)n1` it is > 4 mM (inactive).
Turning to `NCC(N)C(=O)c1ccccc1` (stereo unspecified), the Kd is > 4 mM (inactive).
To `Nc1ccc(CCC(=O)O)cc1` belongs > 4 mM (inactive); to `COc1ccc2c(c1OC)C(=O)OC2[C@H]1c2c(cc3c(c2OC)OCO3)CCN1C` (stereo partly specified), > 4 mM (inactive).
For `NC(=O)c1ccccc1NC(=O)C1CCCO1` (stereo unspecified), the Kd is > 4 mM (inactive).
For the molecule `CCCc1cc(=O)[nH]c2nnc(SCC(C)=O)n12`, the Kd was > 4 mM (inactive).
To `Oc1cnc2ccccc2c1CN1CCOCC1` belongs > 4 mM (inactive); to `Cc1cc([N+](=O)[O-])cc[n+]1[O-]`, > 4 mM (inactive); to `NS(=O)(=O)c1ccc(NC(=O)/C=C\C(=O)O)cc1`, > 4 mM (inactive).
The figure for `O=C(Nc1ccccc1CO)c1ccccc1F` is > 4 mM (inactive); for `O=C(O)c1ccnn1-c1ccccc1` it is > 4 mM (inactive).
For `CC(=O)Nc1ccc(NC(=O)/C=C\C(=O)O)cc1`, the Kd is > 4 mM (inactive).
With `NS(=O)(=O)c1ccc(N=Cc2cccs2)cc1`, the Kd is > 4 mM (inactive).
With `O=C(O)c1onc2ccccc12`, the Kd was > 4 mM (inactive).
With `COc1cccc2c1CCC1=CC(=O)CC[C@@]12C`, the Kd was > 4 mM (inactive).
Regarding `CNC(=O)C1=NCCCc2cc(OC)c(OC)cc21`, the Kd was > 4 mM (inactive).
To `O=C1C2C3CCC(O3)C2C(=O)N1c1ccccc1` (stereo unspecified) belongs > 4 mM (inactive).
The figure for `COCCOc1nc2ccccc2nc1C` is > 4 mM (inactive); for `Cn1nnc2cc(C(=O)N3CCSCC3)ccc21` it is > 4 mM (inactive).
As for `c1ccc(-c2n[nH]c(-c3ccccn3)n2)nc1`, the Kd was > 4 mM (inactive).
With `COc1cc(OC)cc(-c2nc(N)n[nH]2)c1`, the Kd was > 4 mM (inactive).
Regarding `CC(=O)O[C@H]1CC[C@]2(C)C3CC[C@@]4(C)C(CC5O[C@@]6(CCC(C)CO6)[C@@H](C)C54)C3CC[C@@H]2C1` (stereo partly specified), the Kd is > 4 mM (inactive).
Take `OCc1ccc(OC(F)(F)F)cc1`: the Kd is > 4 mM (inactive).
Turning to `NC(=O)c1ccsc1NC(=O)C1=COCCO1`, the Kd was > 4 mM (inactive).
Consider `Nc1nc2ccc(N3CCOCC3)cc2s1`, for which the Kd is > 4 mM (inactive).
To `CN1CCCn2c1nc1c2c(=O)[nH]c(=O)n1C` belongs > 4 mM (inactive); to `O=C(/C=C/c1ccco1)NC1=NCCS1`, > 4 mM (inactive).
To `CC1(C)CC[C@]2(C(=O)O)CC[C@]3(C)C(=CCC4[C@@]5(C)CC[C@@H](O)C(C)(C)C5CC[C@]43C)C2C1` (stereo partly specified) belongs > 4 mM (inactive).
Turning to `Cc1ccc(SCc2nc(-c3ccncc3)no2)cc1`, the Kd was > 4 mM (inactive).
For the molecule `NC(=O)c1ccc(N2CCCCC2)c(N)c1`, the Kd is > 4 mM (inactive).
On to `O=C(O)C1C(=O)NCC1c1ccccc1` (stereo unspecified), for which the Kd was > 4 mM (inactive).
The figure for `CC(C)(O)[C@@H]1[C@H]2OC(=O)[C@@H]1[C@]1(O)C[C@H]3O[C@]34C(=O)O[C@H]2[C@]14C` is > 4 mM (inactive).
Regarding `O=C(Nc1nnc(-c2ccco2)o1)c1ccc([N+](=O)[O-])o1`, the Kd was > 4 mM (inactive).
As to `COc1cccc2c(=O)n(CC(N)=O)ccc12`, the Kd is > 4 mM (inactive).
To `O=C(O)c1ccc(-n2cncn2)cc1` belongs > 4 mM (inactive); to `CCOC(=O)C1CCNCC1`, > 4 mM (inactive); to `Cc1cc(N)n(C2CCOC(C)(C)C2)n1` (stereo unspecified), > 4 mM (inactive).
`CCOC(=O)C1C(=O)C2CCN1CC2` (stereo unspecified): the Kd was > 4 mM (inactive).
On to `Cc1cc(C)n(CCCC(=O)O)n1`, for which the Kd is > 4 mM (inactive).
In the case of `Nc1nc(NCc2ccco2)nn1-c1ccccc1`, the Kd is > 4 mM (inactive).
Consider `Fc1ccc(CN2CCCNCC2)cc1`, for which the Kd is > 4 mM (inactive).
On to `O=C(O)C1CCN(c2ccc(C(F)(F)F)cn2)CC1`, for which the Kd is > 4 mM (inactive).
With `CC(=O)c1c(O)cc(C)n(Cc2ccccc2)c1=O`, the Kd is > 4 mM (inactive).
Regarding `CC(=O)Nc1nc(C)c(C(C)=O)s1`, the Kd was > 4 mM (inactive).
Regarding `Cc1nn(C)c(Cl)c1C(O)c1c(C)nn(C)c1Cl`, the Kd was > 4 mM (inactive).
Take `CC[C@@H]1[C@@H](O)N2C3C[C@H]1C1C(O)[C@]4(C[C@@H]12)c1ccccc1N(C)[C@@H]34` (stereo partly specified): the Kd is > 4 mM (inactive).
On to `O=c1ccc2cc(O)c(O)cc2o1`, for which the Kd is > 4 mM (inactive).
For `N#CCSc1nc2ccccc2c(=O)n1-c1ccccc1`, the Kd is > 4 mM (inactive).
For `CCC(=O)NC(=S)Nc1ccc(N2CCOCC2)cc1`, the Kd is > 4 mM (inactive).
For the molecule `O=c1c2ccccc2nc2n1CCCCN2`, the Kd was > 4 mM (inactive).
On to `COc1c(-c2ccccc2)oc2c(OC)cccc2c1=O`, for which the Kd was > 4 mM (inactive).
`NC(=O)CCN1C(=O)c2ccccc2C1=O`: the Kd was > 4 mM (inactive).
Consider `COCc1cc(=O)oc2cc(O)c(Cl)cc12`, for which the Kd is > 4 mM (inactive).
With `C/C1=C/CC(C)(C)/C=C/C/C(C)=C/CC1`, the Kd is > 4 mM (inactive).
Regarding `CC1(C)NCCN2C(=O)CSC21` (stereo unspecified), the Kd was > 4 mM (inactive).
For the molecule `NC(=O)c1cc(Cl)c(C(N)=O)cc1Cl`, the Kd was > 4 mM (inactive).
